Structures can show the parent of a compound that is named as a salt. Where two headings read alike, the source gives them in different places.
Experiments:
[1] = system: Human breast cancer cell line T47D; assay: Cell based caspase-3 activity assay: potentiation of MMS induced apoptosis; settings: T47D cells, 11.1 μg/ml MMS, 24 hours, intracellular caspase-3 activity, read-out: EC50 (nM), potentiation of the apoptosis inducing activity of MMS
Source text: Determination of the synergistic potentiation effect of 1-(3-(4-(pyrimidin-2-yl)piperazine-1-carbonyl)benzyl)quinazoline-2,4(1H,3H)-dione and analogs on MMS induced apoptosis using a cell based caspase-3 activity assay
Human breast cancer cell line T47D was used to determine the potentiation effect of PARP inhibitors on the apoptosis inducing activity of DNA damaging anticancer drugs such as MMS. Intracellular caspase-3 activity was used to measure cell apoptosis. The dose response effect of MMS to induce intracellular caspase activity was carefully titrated and the concentration that only induces a minimal level of caspase activity was used to test the potentiation effect of PARP inhibitors. Briefly, T47D cells were grown in DMEM/F12 cell culture medium (Hyclone) supplemented with 0.2 U/ml insulin (Genview) and 10% FBS (Hyclone). A day before experiment, 20000 of T47D cells were seeded to each well of a 96-well cell culture plate and maintained at 37° C. and 5% CO2 in a cell culture incubator overnight. On the day of experiment, cell culture medium was removed. One hundred and eighty μl of fresh medium containing 11.1 μg/ml MMS was added to each well and followed by 20 μl medium containing 10 folds of the concentrations of experimental drugs or reference compounds (ADZ2281 and ABT-888). The serial dilutions of the compounds to be tested and the reference compounds were made in a 1:3 and 1:10 fashion in DMSO. The 10-fold compound solutions were made by mixing 10 μl DMSO serial dilution solutions with 90 μl fresh growth medium. Twenty four hours later, the cells in the 96-well plates were centrifuged at 1000 g for 5 min and the supernatants were removed. Fifty μl lysis buffer (10 mM Tris, pH7.5, 0.1M NaCl, 1 mM EDTA, 0.01% Triton X-100) was added to each well and the plates were shaked horizontally for 30 min at 4° C. After centrifugation at 1000 g at 4° C. for 10 min, 20 μl of supernatant was transferred from each well to a corresponding well in a 384-well black plate. Twenty μl of buffer (20 mM PIPES, pH7.4, 4 mM EDTA and 0.2% CHAPS) containing 20 μM fluorescent caspase-3 substrate ((Ac-DEVD)2-R110, AnaSpec Cat #60304-5) was added to each well afterwards. The plates were shaked to uniformly mix the wells and incubated at 37° C. for 3 h. The fluorescence intensity was measured using the following wavelength: ex: 496 nm, em: 520 nm using a fluorescence plate reader (Varioskan Flash, Thermo Fisher Scientific). The caspase-3 activity induced by the compounds was expressed as a relative fluorescence unit (RFU). The obtained fluorescence readings were analyzed using a commercial graphic software (GraphPad Prism 5) and plotted against the Log value of the compound concentrations. The EC50 values were obtained by fitting the data points with the equation of Y (fluorescence reading)=minimal fluorescence reading+(maximal fluorescence reading−minimal fluorescence reading)/(1+10^(Log EC50−Log C)), where C is the concentration of the testing compound.
The synergistic potentiation effect of compounds on MMS induced apoptosis in T47D cells is expressed as EC50 values and listed in Table 2.

[2] = system: SW620 human colorectal cancer cells; assay: MTT based cell viability assay: potentiation of the growth inhibiting activity of MMS
[3] = Homo sapiens, SW-620, 120 h, read-out: IC50 (nM), potentiation of the growth inhibiting activity of MMS, SW620 cells, 1.7 μg/ml MMS, 5 days (120 hours), MTT

Row | Structure (SMILES) | EC50 ([1]; Homo sapiens, T47D, 24 h) [nM] | IC50 [2, 3] [nM] | EC50 ([1]; hydrochloride) [nM] | IC50 ([2]; read-out: IC50 (nM), potentiation of the growth inhibiting activity of MMS, SW620 cells, 1.7 μg/ml MMS, 5 days (120 hours), MTT, hydrochloride) [nM]
1 | O=C(c1ccc(F)c(Cn2c(=O)[nH]c(=O)c3cc(Cl)ccc32)c1)N1CCN(C(=O)C2CCCCC2)CC1 [Example 125, 6-Chloro-1-(3-(4-(cyclohexylcarbonyl)piperazine-1-carbonyl)-6-fluorobenzyl)quinazoline-2,4(1H,3H)-dione] | 22 | 6.7 | – | –
2 | O=C(c1ccc(F)c(Cn2c(=O)[nH]c(=O)c3c(Cl)cccc32)c1)N1CCN(c2ccccn2)CC1 [Example 173, 5-Chloro-1-(6-fluoro-3-(4-(pyridin-2-yl)piperazine-1-carbonyl)benzyl)quinazoline-2,4(1H,3H)-dione] | 122 | 228 | – | –
3 | O=C(c1cccc(Cn2c(=O)[nH]c(=O)c3cc(Br)ccc32)c1)N1CCN(C(=O)C2CCCCC2)CC1 [Example 86, 6-Bromo-1-(3-(4-(cyclohexylcarbonyl)piperazine-1-carbonyl)benzyl)quinazoline-2,4(1H,3H)-dione] | 27 | 86 | – | –
4 | O=C(c1ccco1)N1CCN(C(=O)c2cc(Cn3c(=O)[nH]c(=O)c4ccccc43)ccc2F)CC1 [Example 47, 1-(4-Fluoro-3-(4-(furan-2-carbonyl)piperazine-1-carbonyl)benzyl)quinazoline-2,4(1H,3H)-dione] | 2.6 | 54 | – | –
5 | O=C(c1cc(Cn2c(=O)[nH]c(=O)c3c(Cl)cccc32)ccc1F)N1CCN(c2ccccn2)CC1 [Example 106, 5-Chloro-1-(4-fluoro-3-(4-(pyridin-2-yl)piperazine-1-carbonyl)benzyl)quinazoline-2,4(1H,3H)-dione] | 217 | 105 | – | –
6 | O=C(c1cccc(Cn2c(=O)[nH]c(=O)c3ccccc32)c1)N1CCN(C2CCCCC2)CC1 [Example 5, 1-(3-(4-Cyclohexylpiperazine-1-carbonyl)benzyl)quinazoline-2,4(1H,3H)-dione] | 450 | 5360 | – | –
7 | O=C(c1cccc(Cn2c(=O)[nH]c(=O)c3c(F)cccc32)c1)N1CCN(C(=O)c2cccs2)CC1 [Example 131, 5-Fluoro-1-(3-(4-(thiophene-2-carbonyl)piperazine-1-carbonyl)benzyl)quinazoline-2,4(1H,3H)-dione] | 20 | 17 | – | –
8 | O=C(c1cccc(Cn2c(=O)[nH]c(=O)c3ccccc32)c1)N1CCN(c2ccccc2)CC1 [Example 19, 1-(3-(4-Phenylpiperazine-1-carbonyl)benzyl)quinazoline-2,4(1H,3H)-dione] | > 10000 | > 10000 | – | –
9 | O=C(c1ccc(F)cc1)N1CCN(C(=O)c2ccc(Cn3c(=O)[nH]c(=O)c4ccccc43)cc2)CC1 [Example 96, 1-(4-(4-(4-Fluorobenzoyl)piperazine-1-carbonyl)benzyl)quinazoline-2,4(1H,3H)-dione] | > 10000 | > 10000 | – | –
10 | O=C(c1ccc(Br)cc1)N1CCN(C(=O)c2ccc(Cn3c(=O)[nH]c(=O)c4ccccc43)cc2)CC1 [Example 98, 1-(4-(4-(4-Bromobenzoyl)piperazine-1-carbonyl)benzyl)quinazoline-2,4(1H,3H)-dione] | > 10000 | > 10000 | – | –
11 | O=C(c1cc(Cn2c(=O)[nH]c(=O)c3ccccc32)ccc1F)N1CCN(c2ncccn2)CC1 [Example 192, 1-(4-Fluoro-3-(4-(pyrimidin-2-yl)piperazine-1-carbonyl)benzyl)quinazoline-2,4(1H,3H)-dione hydrochloride] | – | – | 3.1 | 79
12 | Cc1cccc2c(=O)[nH]c(=O)n(Cc3cccc(C(=O)N4CCN(c5ncccn5)CC4)c3)c12 [Example 226, 8-Methyl-1-(3-(4-(pyrimidin-2-yl)piperazine-1-carbonyl)benzyl)quinazoline-2,4(1H,3H)-dione] | 24 | 84 | – | –
13 | COc1ccc(C(=O)N2CCN(C(=O)c3cccc(Cn4c(=O)[nH]c(=O)c5ccccc54)c3)CC2)cc1 [Example 12, 1-(3-(4-(4-Methoxybenzoyl)piperazine-1-carbonyl)benzyl)quinazoline-2,4(1H,3H)-dione] | 318 | 533 | – | –
14 | COC(=O)c1cc(Cn2c(=O)[nH]c(=O)c3ccccc32)ccc1F [Example 21, 1-(4-Fluoro-3-methoxycarbonylbenzyl)quinazoline-2,4(1H,3H)-dione] | 5800 | > 10000 | – | –
15 | O=C(c1cccc(Cn2c(=O)[nH]c(=O)c3cccc(F)c32)c1)N1CCN(c2ncccn2)CC1 [Example 218, 8-Fluoro-1-(3-(4-(pyrimidin-2-yl)piperazine-1-carbonyl)benzyl)quinazoline-2,4(1H,3H)-dione] | 37 | 103 | – | –
16 | O=C(NCc1ccccc1)c1cc(Cn2c(=O)[nH]c(=O)c3c(F)cccc32)ccc1F [Example 202, 1-(3-(Benzylcarbamoyl)-4-fluorobenzyl)-5-fluoroquinazoline-2,4(1H,3H)-dione] | > 10000 | > 10000 | – | –

Now from value to compound:

Row | EC50 ([1]; Homo sapiens, T47D, 24 h) [nM] | IC50 [2, 3] [nM] | EC50 ([1]; hydrochloride) [nM] | IC50 ([2]; read-out: IC50 (nM), potentiation of the growth inhibiting activity of MMS, SW620 cells, 1.7 μg/ml MMS, 5 days (120 hours), MTT, hydrochloride) [nM] | Structure (SMILES)
17 | 4170 | > 10000 | – | – | O=C(c1cccc(Cn2c(=O)[nH]c(=O)c3cc([N+](=O)[O-])ccc32)c1)N1CCN(C(=O)C2CCCC2)CC1 [Example 90, 1-(3-(4-(Cyclopentylcarbonyl)piperazine-1-carbonyl)benzyl)-6-nitroquinazoline-2,4(1H,3H)-dione]
18 | 1990 | > 10000 | – | – | O=C(c1cccc(Cn2c(=O)[nH]c(=O)c3cc([N+](=O)[O-])ccc32)c1)N1CCN(c2ncccn2)CC1 [Example 91, 6-Nitro-1-(3-(4-(pyrimidin-2-yl)piperazine-1-carbonyl)benzyl)quinazoline-2,4 (1H,3H)-dione]
19 | 7.4 | 12 | – | – | O=C(c1cccc(Cn2c(=O)[nH]c(=O)c3cc(F)ccc32)c1)N1CCN(C(=O)C2CCC2)CC1 [Example 179, 1-(3-(4-(Cyclobutylcarbonyl)piperazine-1-carbonyl)benzyl)-6-fluoroquinazoline-2,4(1H,3H)-dione]
20 | 4.1 | 3.4 | – | – | O=C(c1cccs1)N1CCN(C(=O)c2cc(Cn3c(=O)[nH]c(=O)c4cc(F)ccc43)ccc2F)CC1 [Example 146, 6-Fluoro-1-(4-fluoro-3-(4-(thiophene-2-carbonyl)piperazine-1-carbonyl)benzyl)quinazoline-2,4(1H,3H)-dione]
21 | > 10000 | > 10000 | – | – | O=C(c1cccc(Cn2c(=O)[nH]c(=O)c3ccc(C(F)(F)F)cc32)c1)N1CCN(c2ncccn2)CC1 [Example 206, 1-(3-(4-(Pyrimidin-2-yl)piperazine-1-carbonyl)benzyl)-7-(trifluoromethyl)quinazoline-2,4(1H,3H)-dione]
22 | 108 | 171 | – | – | O=C(c1ccc(Cl)c(Cn2c(=O)[nH]c(=O)c3ccccc32)c1)N1CCN(c2ccccn2)CC1 [Example 58, 1-(6-Chloro-3-(4-(pyridin-2-yl)piperazine-1-carbonyl)benzyl)quinazoline-2,4(1H,3H)-dione]
23 | > 10000 | > 10000 | – | – | O=C(c1cccc(Cn2c(=O)[nH]c3ccccc3c2=O)c1)N1CCN(c2ncccn2)CC1 [Example 228, 3-(3-(4-(Pyrimidin-2-yl)piperazine-1-carbonyl)benzyl)quinazoline-2,4(1H,3H)-dione]
24 | 379 | 816 | – | – | O=C(c1cccc(Cn2c(=O)[nH]c(=O)c3ccccc32)c1F)N1CCN(C(=O)C2CCCC2)CC1 [Example 62, 1-(3-(4-(Cyclopentylcarbonyl)piperazine-1-carbonyl)-2-fluorobenzyl)quinazoline-2,4(1H,3H)-dione]
25 | 112 | 269 | – | – | O=C(c1cccc(Cn2c(=O)[nH]c(=O)c3ccc(F)cc32)c1)N1CCN(c2ncccn2)CC1 [Example 78, 7-Fluoro-1-(3-(4-(pyrimidin-2-yl)piperazine-1-carbonyl)benzyl)quinazoline-2,4(1H,3H)-dione]
